Where two headings read alike, the source gives them in different places.
Columns and labels:
LDLR [1] = assay: LDLR levels in HepG2 cells (western blot); format: cell-based, human; conditions: 5 μM, FIG. 3
Source text: Protein extracts (IMO were used for immunodetection of intracellular LDLR (western blot analysis) with a commercially available primary antibody against LDLR (ABCAM, catalog #14056), HRP-conjugated secondary antibody (ABCAM, catalog #97135) visualized using an enhanced chemiluminescence (ECL) solution (Cumaric acid, Luminol and hydrogen peroxide), developed in a LiCore imager. See FIG. 3.

recombinant PCSK9 = recombinant PCSK9 (Homo sapiens, UniProt Q8NBP7); assay: PCSK9 detection interference (ELISA); conditions: FIG. 5A
Method: To study whether 34 directly interfere with PCSK9 detection we used recombinant PCSK9 (30 ng/ml) was mixed with increasing concentration (0.2-50 μM) of 34 in 0.1% DMSO followed by detection of PCSK9 using commercially available ELISA kit (MBL-international, catalog # CY-8079) following the manufacturer instruction.

[2] = biological target: T1, PCSK9 binding to LDLR (EGF-A domain) (Homo sapiens, UniProt Q8NBP7); assay: PCSK9-LDLR interaction ELISA; conditions: FIG. 5B
T1 construct: purchased MBL-international CY-8150
Method: To study whether increasing concentrations of 34 (0.2-50 μM) directly interfere with PCSK9-LDLR interaction we used a commercially available ELISA kit (MBL-international, catalog # CY-8150) following the manufacturer instruction.

albumin [3] = assay: Albumin secretion, HepG2 (ELISA); format: cell-based, human
Method: The collected media was analyzed for albumin levels using commercially available ELISA kit (ABCAM, catalog #108788) following the manufacturer instruction.

albumin [4] = assay: Intracellular albumin, HepG2 (ELISA); format: cell-based, human
Method: After 24 hours media was aspirated, cells were washed with HBSS followed by protein extraction using commercially available RIPA buffer (SIGMA-ALDRICH, catalog #20-188). Protein extracts (5 μgr) were used for albumin detection using commercially available ELISA kit (ABCAM, catalog #108788) following the manufacturer instruction.

[5] = system: 4000 most abundant proteins in HepG2 cells; assay: Shotgun proteomics of HepG2 cells; format: cell-based, human; conditions: 5 μM, FIGS. 8A-8B
Method: To study whether 34 affect total protein levels in hepG2 in an unbiased analysis we used 1×10^6 HepG2 cells in 6-well culture plates, followed by incubation with media+0.1% DMSO or DMSO or with increasing concentration (2.5-10 μM) of 34 in 0.1% DMSO for 24 hours. After 24 hours media was aspirated, cells were washed with HBSS followed by shotgun proteomics analysis of the most abundant ˜4000 cellular proteins. Spectral count for each protein was compared between untreated (0.1% DMSO) to treated (34 at 5 μM) samples.

AST = system: AST; set-up: species or system mice; conditions: mouse, in vivo, po
Method: 1) Single-dose experiments: mice were administered (oral gavage or intra-peritoneal injection) with 200 μl of 34 (30 mg/kg or 100 mg/kg) in 0.1% Tween 80+1% hydroxyethyl cellulose (HEC) in buffered (PBS pH7.4) solution. After 34 administration, 50-70 μl of blood was collected from the retro-orbital plexus every 4-6 hours (for a total of 24 hours). Blood was left to clot at room temperature for 20 min, followed by serum separation (spin at 1000 g for 10 min). Serum was analyzed as specified in the “Serum analyses” section. 2) Daily dosage experiments: mice were administered daily oral gavage with 200 μl of 34 (100 mg/kg) in 0.1% Tween80+1% hydroxyethyl cellulose (HEC) in buffered (PBS pH7.4) solution. 50-70 μl of blood was collected from the retro-orbital plexus on day 3 and day 5 after 34 administration, on day 5 mice were euthanized and liver were collected and analyzed as mentioned below under the “Liver analyses” section. Blood was left to clot at room temperature for 20 min, followed by serum separation (spin at 1000 g for 10 min). Serum was analyzed as described below: AST activity—using commercially available activity assay (SIGMA-ALDRICH, catalog # MAK055) following the manufacturer instruction.

LDLR [6] = assay: Hepatic LDLR levels in mice (western blot); format: in vivo; conditions: livers on day 5 after daily oral 100 mg/kg/day, FIG. 14B
Method: 2) Daily dosage experiments: mice were administered daily oral gavage with 200 μl of 34 (100 mg/kg) in 0.1% Tween80+1% hydroxyethyl cellulose (HEC) in buffered (PBS pH7.4) solution. 50-70 μl of blood was collected from the retro-orbital plexus on day 3 and day 5 after 34 administration, on day 5 mice were euthanized and liver were collected and analyzed as mentioned below under the “Liver analyses” section. Blood was left to clot at room temperature for 20 min, followed by serum separation (spin at 1000 g for 10 min). Serum was analyzed as described below: Hepatic LDLR levels—To study whether 34 affect hepatic LDLR levels we used 10 mg of PBS-flushed livers. Livers were minced and proteins were extracted using available RIPA buffer (SIGMA-ALDRICH, catalog #20-188). Protein extracts (5 μgr) were used for immunodetection of intracellular LDLR (western blot analysis) with a commercially available primary antibody against LDLR (ABCAM, catalog #14056), HRP-conjugated secondary antibody (ABCAM, catalog #97135) visualized using an enhanced chemiluminescence (ECL) solution (Cumaric acid, Luminol and hydrogen peroxide), developed in a LiCore imager.

HepG2 cells = assay: LDL-cholesterol uptake in HepG2 cells (3H-cholesterol); format: cell-based, human; conditions: 10 uM for 24 hours, FIG. 16
Method: To determine whether Compound 34 increases LDL-cholesterol uptake, LDL was isolated from human plasma using ultracentrifugation and the cholesterol content of the particle was radiolabeled with 3H-cholesterol. Hepatoma cells (HepG2) were cultured (0.25×10^6 cell/well in a 24-well plate) with or without 10 uM of B004 (compound 34) for 24 hours in DMEM. Radiolabeled LDL-cholesterol (LDL-c) was added to the cells for 4 hours. Cells were washed 3 times with PBS and left to air dry. 500 μl of isopropanol was added to each well and incubate with shaking at room temperature for 3 hours in a sealed container. 50 μl of the isopropanol was placed into a scintillation vial together with 4.5 ml of scintillation liquid cocktail (Scintiverse BD). 3H-cholesterol levels were read using a beta emission radioactive counter.

[7] = 20 μM and 50 μM, HepG2, result of increased cell death

Sequence of recombinant PCSK9 (Q8NBP7 153-692): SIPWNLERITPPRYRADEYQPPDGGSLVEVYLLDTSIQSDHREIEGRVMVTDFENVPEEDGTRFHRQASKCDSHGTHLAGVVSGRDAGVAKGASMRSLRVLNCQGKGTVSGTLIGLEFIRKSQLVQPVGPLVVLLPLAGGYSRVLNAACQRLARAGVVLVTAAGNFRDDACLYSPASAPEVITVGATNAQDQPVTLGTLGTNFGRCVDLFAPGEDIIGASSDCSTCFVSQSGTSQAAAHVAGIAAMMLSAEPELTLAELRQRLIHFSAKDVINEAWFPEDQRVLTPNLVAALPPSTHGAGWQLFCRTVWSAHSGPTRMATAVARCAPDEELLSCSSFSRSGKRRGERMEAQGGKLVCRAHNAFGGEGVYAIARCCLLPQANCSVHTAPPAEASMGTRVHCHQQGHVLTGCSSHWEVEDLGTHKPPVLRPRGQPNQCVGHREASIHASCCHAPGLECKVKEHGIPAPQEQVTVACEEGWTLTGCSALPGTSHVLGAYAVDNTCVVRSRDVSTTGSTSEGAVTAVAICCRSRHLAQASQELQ
T1 sequence (Q8NBP7 153-692): as above
T1 sequence (Q8NBP7 31-152 partner limits assumed): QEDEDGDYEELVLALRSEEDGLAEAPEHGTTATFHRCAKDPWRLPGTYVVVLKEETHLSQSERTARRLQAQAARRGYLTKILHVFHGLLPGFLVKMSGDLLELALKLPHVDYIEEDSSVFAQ

SMILES: CC(=O)Oc1ccc(C2CC3(CCCCC3)c3c2[nH]c2ccccc32)cc1 (stereo not drawn) [Compound 34]
- increase in LDLR protein levels (LDLR [1]): 21%
- interference with PCSK9 detection (recombinant PCSK9): does not interfere with PCSK9 detection
- PCSK9 binding to LDLR (EGF-A domain) [2]: does not affect PCSK9 binding to LDLR (EGF-A domain)
- secreted albumin (albumin [3]; [7]): Reduction in secreted and intracellular albumin
- secreted albumin (albumin [3]; up to 10 μM, 40 hours of incubation, HepG2, FIG. 6A): no changes in secreted or intracellular albumin
- intracellular albumin (albumin [4]; [7]): Reduction in secreted and intracellular albumin
- intracellular albumin (albumin [4]; up to 10 μM, 40 hours of incubation, HepG2, FIG. 6B): no changes in secreted or intracellular albumin
- levels of the 4000 most abundant proteins [5]: does not affect the levels of the 4000 most abundant proteins in HepG2 cells
- liver function (measured as AST activity) (AST; 100 mg/kg): not affected
- liver function (measured as AST activity) (AST; 100 mg/kg/day): not affected
- increase in hepatic LDLR (LDLR [6]): 16.2%
- LDL-cholesterol uptake (HepG2 cells): increases LDL-cholesterol uptake in HepG2 cells

Reference: patent publication US11633379B2, “Methods of inhibiting PCSK9” (TRUSTEES OF DARTMOUTH COLLEGE, priority 2017, dated 2023)
